Experimental data published in patent US20100004166A1, “Endothelin and Endothelin Receptor Agonists in the Treatment of Metabolic Diseases” (priority 2007, published 2010).
“Also recorded” adds a separate entry of the source. Where a SMILES comes first, the peptide text is derived from it. Bridges are numbered along the chain shown (N, C = ends). Where no end group is shown, it is not given here.

Legend:
[1] = Reduction of food intake in fasted mice after i.p. injection of peptide; format: in vivo, NIH/Swiss mice; conditions: for % Inhibition of FI at 120 mi: food intake (FI) at 120 min, dose not given
Excerpt: In yet another embodiment, the ET receptor agonist is adenoregulin. See, e.g., Donly et al., Proc. Natl. Acad. Sci. USA 89:10960-963 (1992); Amiche et al., Biochem. Biophys. Res. Comm. 191:983-90 (1993). Known sequences for adenoregulin include Genbank sequences X70278 and X72387. Originally isolated from the skin of the frog Phyllomedusa bicolor, adenoregulin belongs to the family of dermaseptins, a family of antimicrobial peptides. See, e.g., Amiche et al., J. Biol. Chem. 269:17847-52 (1994); Zhou et al., Biotechnol. Lett. 27:725-30 (2005).
Materials & Methods: NIH/Swiss mice were fasted approximately 17 hours prior to initiation of the experiment. Peptides were injected intraperitoneally (i.p.) at time zero using doses as indicated. All mice received an intraperitoneal injection (200 μl) of either vehicle or compounds at doses indicated and were immediately presented with a pre-weighed food pellet. The food pellet was weighed at 30-minute, 1-hr, and 2-hr intervals after presentation to determine the amount of food eaten. Each point reflects n=4 for mice receiving an endothelin or endothelin agonist or n=3 for mice receiving vehicle.
Food intake values reflect, at each time point, effect of test sample on food intake is expressed as % change relative to vehicle using the formula provided below.
% basal=−100*[1−(food intake of treatment group/food intake of vehicle group)].
(§1) Significant test sample effects were identified by ANOVA (p<0.05). Where a significant difference exists, test means were compared to the control mean using Dunnett's test. One-way ANOVA with Dunnett's post test was performed using GraphPad Prism® version 3.01 for Windows, GraphPad Software, San Diego, Calif. USA.

[2] = Body weight and body fat in diet induced obese (DIO) mice, continuous s.c. osmotic pump infusion; format: in vivo
Protocol: Materials & Methods: Diet induced obese (DIO) mice were employed. Obesity was induced by feeding a pelleted high-fat diet (58% of calories, #D12331, Research Diets, New Brunswick, N.J.) starting at 4 wk of age (20) for 6 wk (4 wk for the long-term study) prior to treatment. The mice then remained on this diet in powdered form throughout the treatment period unless otherwise noted. All animals were housed under a 12 hr:12 hr light-dark cycle at 21-23° C., and allowed ad libitum access to food pre- and post-treatment. […] (20 nmol/kg/d), or adenoregulin [SEQ ID NO: 33] (300 nmol/kg/d) were administered to DIO mice by Alzet® s.c. osmotic pumps. Mice were fed pelleted high-fat diet, and body weights and food intake were recorded weekly.
Body weight (BWt), at each time point, reflects the effect of test sample on BWt when expressed as % change relative to vehicle treated. For a treatment group:
% BWt loss=100*[(mean BWt change vehicle treated)−(mean BWt change treated)/mean BWt at day 0]
[…]
as §1, with “Diego” for “Diego,”, “Calif.” for “Calif. USA.”

ETA = target: T1, ETA (Homo sapiens, UniProt P25101); conditions: read-out: affinity for ETA; cited from earlier work
T1 sequence (P25101 21-427): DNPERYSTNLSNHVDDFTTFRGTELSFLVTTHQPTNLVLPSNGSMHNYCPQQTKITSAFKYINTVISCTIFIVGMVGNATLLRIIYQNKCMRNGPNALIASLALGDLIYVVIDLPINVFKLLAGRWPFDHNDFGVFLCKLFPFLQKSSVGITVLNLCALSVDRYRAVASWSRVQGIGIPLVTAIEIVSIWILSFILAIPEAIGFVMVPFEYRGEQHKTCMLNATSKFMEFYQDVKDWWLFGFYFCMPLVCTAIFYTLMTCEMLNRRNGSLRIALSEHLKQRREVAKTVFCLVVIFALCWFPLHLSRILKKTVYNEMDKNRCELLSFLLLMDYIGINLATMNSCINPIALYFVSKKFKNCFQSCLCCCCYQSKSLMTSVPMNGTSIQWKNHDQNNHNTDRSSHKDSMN

Row | Compound | % Inhibition of FI at 120 mi [1] [%] | further results
1 | CC[C@H](C)[C@H](NC(=O)[C@H](CC(=O)O)NC(=O)[C@H](CC(C)C)NC(=O)[C@H](Cc1cnc[nH]1)NC(=O)[C@@H]1CSSC[C@H](N)C(=O)N[C@@H](CO)C(=O)N[C@H]2CSSC[C@H](NC(=O)[C@H](CCC(=O)O)NC(=O)[C@H](CCCCN)NC(=O)[C@H](CC(=O)O)NC(=O)[C@H](CC(C)C)NC(=O)[C@H](Cc3c[nH]c4ccccc34)NC(=O)[C@H](CO)NC(=O)[C@H](CO)NC2=O)C(=O)N[C@@H](C(C)C)C(=O)N[C@@H](Cc2ccc(O)cc2)C(=O)N[C@@H](Cc2ccccc2)C(=O)N1)C(=O)N[C@H](C(=O)N[C@@H](Cc1c[nH]c2ccccc12)C(=O)O)[C@@H](C)CC [ET-2, reference compound] (H-CSCSSWLDKECVYFCHLDIIW-OH; disulfide 1-15, 3-11) | – | observable negative effects ([1]; fasted mice, i.p.): without observable negative effects
2 | 46 (GLWSKIKEVGKEAAKAAAKAAGKAALGAVSEA-NH2) [compound 46] | 17.0 | –
3 | GLWSKIKEVGKEAAKAAAKAAGKAALGAVSEAV-NH2 [SEQ ID NO 33] | – | food intake ([1]; rodents, doses estimated to be less than those exerting antibiotic effects): inhibited food intake; body weight ([2]; DIO mice on high fat diet, 300 nmol/kg/d, infused continuously 2-4 weeks (28 days), listed as adenoregulin): sustained weight reducing effect; also recorded: reduction of body weight; body fat ([2]; DIO mice on high fat diet, 300 nmol/kg/d, vs vehicle on high-fat or low-fat diet, listed as adenoregulin): reduction in body fat; also recorded: reduction of body fat
4 | 63 (GMWSKIKNAGKAAAKASKKAAGKAALGAVSEALGEQ-OH) [compound 63] | 50.0 | –
5 | 51 (GLASKIKEVGKEAAKAAAKAAGKAALGAVSEAV-NH2) [compound 51] | 25.8 | –
6 | 52 (ALWSKIKEVGKEAAKAAAKAAGKAALGAVSEAV-NH2) [compound 52] | 32.3 | –
7 | 60 (ALWKTLLKKVGKVAGKAVLNAVTNMANQNEQ; not fully specified (C-terminus); printed as ALWKTLLKKVGKVAGKAVLNAVTNMANQNEQ-OH) [compound 60] | 53.0 | –
8 | CC[C@H](C)[C@H](NC(=O)[C@H](CC(=O)O)NC(=O)[C@H](CC(C)C)NC(=O)[C@H](Cc1cnc[nH]1)NC(=O)[C@@H]1CSSC[C@H](N)C(=O)N[C@@H](CO)C(=O)N[C@H]2CSSC[C@H](NC(=O)[C@H](CCC(=O)O)NC(=O)[C@H](CCCCN)NC(=O)[C@H](CC(=O)O)NC(=O)[C@H](CCSC)NC(=O)[C@H](CC(C)C)NC(=O)[C@H](CO)NC(=O)[C@H](CO)NC2=O)C(=O)N[C@@H](C(C)C)C(=O)N[C@@H](Cc2ccc(O)cc2)C(=O)N[C@@H](Cc2ccccc2)C(=O)N1)C(=O)N[C@H](C(=O)N[C@@H](Cc1c[nH]c2ccccc12)C(=O)O)[C@@H](C)CC [ET-1, reference compound] | – | observable negative effects ([1]; fasted mice, i.p.): without observable negative effects; sickness behavior ([2]; DIO mice, 20 nmol/kg/d continuously infused): without observable sickness behavior
9 | 41 (GLWSKIKEVGKEAAKAAAKAAGKAALGAVSEAA-NH2) [compound 41] | 54.0 | –
10 | 40 (GLWSKIKEVGKEAAKAAAKAAGKAALGAVSEAW-NH2) [compound 40] | 61.0 | –
11 | 53 (GLWSKIKEVGKEAAKAAAKAAGKAALGAASEAV-NH2) [compound 53] | 33.6 | –
12 | N-Succinyl-[Glu^9, Ala^11,15]-Endothelin 1 fragment 8-21 [IRL1620, reference compound] | – | food intake at 30 minutes ([1]; fasted mice, i.p., 30 minutes): reduced food intake; food intake at 60 minutes ([1]; fasted mice, i.p., 60 minutes): reduced food intake; food intake at 120 minutes ([1]; fasted mice, i.p., 120 minutes): no effect
13 | 50 (GLWSAIKEVGKEAAKAAAKAAGKAALGAVSEAV-NH2) [compound 50] | 22.3 | –
14 | 59 (ALWKTMLKKLGTMALHAGKAALGAAADTISQGTQ-OH) [compound 59] | 58.0 | –
15 | 62 (ALWKTLLKKVLKA-NH2) [compound 62] | 28.2 | –
16 | 42 (GLWSKIKEVGKEAAKAAAKAAGKAALGAVSEAK-NH2) [compound 42] | 48.0 | –
17 | 43 (GLWSKIKEVGKEAAKAAAKAAGKAALGAVSEAP-NH2) [compound 43] | 37.0 | –
18 | 56 (GLWAKIKEVGKEAAKAAAKAAGKAALGAVSEAV-NH2) [compound 56] | 71.7 | –

Row | Compound | % Inhibition of FI at 120 mi [1] [%] | further results
19 | 49 (GLWSKIKEVGKEAAKAAAKAAGKAALGAVSEA-NH2) [compound 49] | 13.5 | –
20 | 33 (GLWSKIKEVGKEAAKAAAKAAGKAALGAVSEAV-NH2) [compound 33] | 77.6 | –
21 | 45 (GLWSKIKEVGKEAAKAAAKAAGKAALGAVSEAH-NH2) [compound 45] | 23.0 | –
22 | 44 (GLWSKIKEVGKEAAKAAAKAAGKAALGAVSEAR-NH2) [compound 44] | 34.0 | –
23 | 61 (ALWMTLLKKVLKAAAKALNAVLVGANA-OH) [compound 61] | 35.0 | –
24 | 54 (GAWSKIKEVGKEAAKAAAKAAGKAALGAVSEAV-NH2) [compound 54] | 37.3 | –
25 | c(CTCNDMTDEECLNFCHQDVIW)-OH [Sarafotoxin S6c, reference compound] | – | reduction in food intake ([1]; fasted mice, peripheral (i.p.) administration, all time points examined (30, 60, 120 min)): dose-dependent reduction in food intake
26 | 38 (GLWSKIKEVGKEAAKAAAKAAGKAALGAVSEAI-NH2) [compound 38] | 78.0 | –
27 | 55 (GLWSKIKEVGKEAAKAAAKAAGKAALGAVSEAA-NH2) [compound 55] | 54.0 | –
28 | 58 (GLWSKIKEVGKEAAKAAAKAAGKAALGAVSAAV-NH2) [compound 58] | 78.9 | –
29 | 37 (GLWSKIKEVGKEAAKAAAKAAGKAALGAVSEAL-NH2) [compound 37] | 79.0 | –
30 | 64 (GMWGSLLKGVATVVKHVLPHALSSQQS-OH) [compound 64] | 22.0 | –
31 | 35 (GLWSKIKEVGKEAAKAAAKAAGKAALGAVSEA-NH2) [compound 35] | 28.9 | –
32 | CC[C@H](C)[C@H](NC(=O)[C@H](CC(=O)O)NC(=O)[C@H](CC(C)C)NC(=O)[C@H](Cc1c[nH]cn1)NC(=O)[C@@H]1CSSC[C@H](N)C(=O)N[C@@H]([C@@H](C)O)C(=O)N[C@H]2CSSC[C@H](NC(=O)[C@H](CCC(=O)O)NC(=O)[C@H](CCCCN)NC(=O)[C@H](CC(=O)O)NC(=O)[C@H](CCCCN)NC(=O)[C@H](Cc3ccc(O)cc3)NC(=O)[C@H]([C@@H](C)O)NC(=O)[C@H](Cc3ccccc3)NC2=O)C(=O)N[C@@H](C(C)C)C(=O)N[C@@H](Cc2ccc(O)cc2)C(=O)N[C@@H](Cc2ccc(O)cc2)C(=O)N1)C(=O)N[C@H](C(=O)N[C@@H](Cc1c[nH]c2ccccc12)C(=O)O)[C@@H](C)CC [ET-3, reference compound] | – | Kd (ETA): 6.5 nM; observable negative effects ([1]; fasted mice, i.p.): without observable negative effects
33 | 39 (GLWSKIKEVGKEAAKAAAKAAGKAALGAVSEAY-NH2) [compound 39] | 61.0 | –
34 | 36 (GLWSKIKEVGKEAAKAAAKAAGKAALGAVSEAF-NH2) [compound 36] | 92.0 | –
35 | 57 (GLWSKIKEVGKEAAKAAAKAAGKAALGAVAEAV-NH2) [compound 57] | 74.8 | –
36 | 47 (GLWSKIKEVGKEAAKAAAKAAGKAALGAVSEAVGEQ-OH) [compound 47] | 50.0 | –
